Laboratory results from patent US8557791B2, “Anti-tumor agent comprising cytidine derivative and carboplatin” (Taiho Pharmaceutical Co., Ltd., priority 2008, dated 2013).

Key:
[1] = tested on: human lung cancer strain LX-1; experiment: Antitumor effect in nude mice with subcutaneously transplanted human lung cancer strain LX-1; format: in vivo, mouse; settings: day 15, LX-1 s.c., i.v. days 1 and 8, ECyd 2 mg/kg, carboplatin 70 mg/kg; for RTV Mean ± SD (Relative Tumor Volume): male nude mice (BALB/cA jcl-nu); for IR (Inhibition Rate of tumor proliferation with respect to control): male nude mice
Experimental: A fragment (about 2×2 mm) of human lung cancer strain LX-1 was subcutaneously transplanted in the back of each of male nude mice (BALB/cA jcl-nu). When the average tumor volume (longer diameter (mm)×shorter diameter (mm)×shorter diameter (mm)×½) of these mice reached about 200 mm^3, the mice were divided into groups based on the tumor volume (8 mice in each group) (day 0).
Drug administration was started on the day following transplant (day 1). ECyd and carboplatin were administered to a mouse through the caudal vein at a dose of 2 mg/kg and 70 mg/kg, respectively, on days 1 and 8. Mice of a control group were not subjected to drug treatment.
On day 15, the ratio of tumor volume to that at the grouping (Relative Tumor Volume; RTV) was calculated. In addition, percent inhibition of tumor proliferation of a group with respect to the control group (Inhibition Rate (%); IR (%)) was calculated by equation 2.
From the tumor volume on day 15, enhancement in antitumor effect of the combined administration group with respect to the ECyd-only administration group and the carboplatin-only administration group was analyzed through the Student's t-test (both sides). The antitumor effect of the combined administration group with respect to either single administration group had significance value (p value) of less than 0.05, confirming that administration of ECyd and carboplatin in combination is statistically significant. IR (%)=[1−average tumor volume of treated group/average tumor volume of control group]×100 (Equation 2)

[2] = tested on: human head and neck cancer strain OCC-1; experiment: Survival of nude rats with subcutaneously transplanted human head and neck cancer strain OCC-1; format: in vivo, rat; settings: carboplatin 40 mg/kg/day vs cisplatin 5 mg/kg/day as employed in the test
Experimental: Male nude rats (F344/N Jcl-rnu) were divided in terms of body weight into groups (14 rats in each group). To each rat, a fragment (about 2×2 mm) of human head and neck cancer strain OCC-1 was subcutaneously transplanted into the back (day 0). Drug administration was started on the day following transplant (day 1). ECyd was administered to a rat through the caudal vein at a dose of 0.3 mg/kg on days 1, 3, 5, 8, 10, and 12. Carboplatin was administered to a rat through the caudal vein at a dose of 30 mg/kg or 40 mg/kg on days 1 and 8. Cisplatin was administered to a rat through the caudal vein at a dose of 5 mg/kg on day 1. […] Rats of a control group were not subjected to drug treatment.
Thereafter, the survival (days) of each rat was checked, and the survival rate of each group was calculated by the following equation 1. FIGS. 1 to 3 are graphs showing survival rates; in each graph the horizontal axis represents days and the vertical axis represents survival rate. Survival rate (%)=(no. of surviving rats/no. of rats tested)×100 (Equation 1)

Compound	RTV Mean ± SD (Relative Tumor Volume) [1]	IR (Inhibition Rate of tumor proliferation with respect to control) [1] [%]	antitumor effect of the platinum agents compared with each other [2]
C#C[C@@]1(O)[C@@H](CO)O[C@@H](n2ccc(N)nc2=O)[C@@H]1O [ECyd, 1-(3-C-Ethynyl-β-D-ribopentofuranosyl)cytosine]	5.43 ± 1.51	43.8	–
N.N.O=C([O-])C1(C(=O)[O-])CCC1.[Pt+2] [carboplatin, cis-diammine(1,1-cyclobutanedicarboxylato)platinum(II)]	5.53 ± 1.75	42.8	almost the same antitumor effect
N.N.[Cl][Pt][Cl] [cisplatin]	–	–	almost the same antitumor effect
